Experimental data: patent US20220354840A1, “NICOTINE POUCH” (Enorama Pharma AB, priority 2019, published 2022)
Read-outs that look alike come from different tables or passages of the source.

Assays:
[1] = cited from earlier work
[2] = Stability study: degradation products by HPLC-UV; assay type: physicochemical; conditions: pre-stressed sample, elevated temperature and light
Description: • nicotine release at 30 min • degradation product Pouch samples from Example 1 were stored in a plastic container with closed (but not hermetically sealed) lid at 21-22° C./60-62% RH for up to 3 months. The release of nicotine at 30 min for the pouch product stored for 1 month at 21-22° C./60-62% RH was analyzed, using the UV spectrophotometrical method described above.
Pouch samples from Example 1 were also analyzed for the detection of potential degradation products, using HPLC-UV method (Agilent 1200 series HPLC). Samples with the same excipients but without the nicotine API and samples with the nicotine API was used to identify reference (blank) peaks. A pre-stressed sample of nicotine was prepared (using elevated temperature and light) to reveal any peaks originating from heat- and light-induced degradation of nicotine. […] The obtained peaks in the chromatogram corresponds to nicotine or solvent injection peak. The chromatogram from the HPLC-UV analysis of pre-stressed sample of nicotine (FIG. 5A), which was compared to the chromatogram of nicotine bitartrate dihydrate spiked into the reference sample without API (FIG. 5B).

CC1=CC(=O)NS(=O)(=O)O1 [Acesulfame K, Acesulfame potassium]
Solubility in water ([1]; at 20° C.): 270 mg/ml at 20 °C
Solubility in water (descriptive) [1]: High solubility:

OC[C@@H](O)[C@@H](O)[C@H](O)[C@H](O)CO [D-Mannitol]
Solubility in water ([1]; at 25° C.): 216 mg/ml at 25 °C
Solubility in water (descriptive) [1]: Very soluble

CC(C)[C@@H]1CC[C@@H](C)C[C@H]1O [L-Menthol]
Solubility in water (descriptive) [1]: Low soluble

CC(O)CO (centres unmarked) [Propylene glycol]
Solubility in water (descriptive) [1]: Soluble

OC[C@@H](O)[C@H](O)[C@@H](O)CO [Xylitol]
Solubility in water (descriptive) [1]: Very soluble

CN1CCCC1c1cccnc1 (centres unmarked) [nicotine]
peaks from potential degradation products (HPLC-UV) [2]: No additional peaks from potential degradation products
